According to ChEMBL document CHEMBL1201862, “PubChem BioAssay data set” (2004):
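Step 1: Grow cells in 96-well plates. Step 2: Expose to compound for 48 hours at 5 concentrations. Step 3: Interpolate endpoints linearly; if unreached, use highest concentration. Here, GI50 denotes the concentration required for 50% inhibition of growth.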 Calls of active or inactive are those of the source. Rule as the data show it: active = GI50 up to about 1.1 µM and inactive = higher.

Tests used:
Test in all cases: NCI tumour cell line growth inhibition, 48 h
SNB-75 = system: SNB-75
COLO 205 = system: COLO 205
UACC-62 = system: UACC-62
OVCAR-5 = system: OVCAR-5
HOP-92 = system: HOP-92
HL-60 = system: HL-60
ACHN = system: ACHN
OVCAR-8 = system: OVCAR-8
CAKI-1 = system: CAKI-1
K562 = system: K562
SW-620 = system: SW-620
PC-3 = system: PC-3
EKVX = system: EKVX
NCI-H226 = system: NCI-H226
SK-MEL-2 = system: SK-MEL-2
DMS-273 = system: DMS-273
M14 = system: M14
OVCAR-4 = system: OVCAR-4
Malme-3M = system: Malme-3M
NCI/ADR-RES = system: NCI/ADR-RES

| SMILES | GI50 (SNB-75) | GI50 (COLO 205) | GI50 (UACC-62) | GI50 (OVCAR-5) | GI50 (HOP-92) | GI50 (HL-60) | GI50 (ACHN) | GI50 (OVCAR-8) | GI50 (CAKI-1) | GI50 (K562) | GI50 (SW-620) | GI50 (PC-3) | GI50 (EKVX) | GI50 (NCI-H226) | GI50 (SK-MEL-2) | GI50 (DMS-273) | GI50 (M14) | GI50 (OVCAR-4) | GI50 (Malme-3M) | GI50 (NCI/ADR-RES) |
| --- | --- | --- | --- | --- | --- | --- | --- | --- | --- | --- | --- | --- | --- | --- | --- | --- | --- | --- | --- | --- |
| O=C1CCC(c2ccccc2)=NN1c1nc2ccccc2s1 | 22.3 µM (inactive) | 13.2 µM (inactive) | 30.3 µM (inactive) | > 63.5 µM (inactive) | 26.7 µM (inactive) | 41.3 µM (inactive) | 29.9 µM (inactive) | 34.8 µM (inactive) | 32.4 µM (inactive) | 29.8 µM (inactive) | 37.4 µM (inactive) | 26.1 µM (inactive) | 30.8 µM (inactive) | 90.8 µM (inactive) | 20.1 µM (inactive) | 40.2 µM (inactive) | 49.7 µM (inactive) | 36.7 µM (inactive) | 32.2 µM (inactive) | 28.7 µM (inactive) |
| CCCCCCCC(=O)O[C@H]1[C@H]2[C@@H](CC1(C)C)C(=O)[C@]13O[C@H]1C(=O)[C@]1(CO1)[C@]23C | 23.4 µM (inactive) | 1.23 µM (inactive) | 3.55 µM (inactive) | 11.1 µM (inactive) | 1.97 µM (inactive) | 0.124 µM (active) | 2 µM (inactive) | 2.48 µM (inactive) | 2.62 µM (inactive) | 0.573 µM (active) | 0.706 µM (active) | 17 µM (inactive) | 3.66 µM (inactive) | 13.9 µM (inactive) | 3.7 µM (inactive) | 5.96 µM (inactive) | 3.92 µM (inactive) | 4.46 µM (inactive) | 3.29 µM (inactive) |  |
| CC(C)c1cccc(=O)c(O)c1 | 6.18 µM (inactive) | 1.37 µM (inactive) | 2.67 µM (inactive) | 9.73 µM (inactive) | 1.75 µM (inactive) | 2.02 µM (inactive) | 1.87 µM (inactive) | 1.72 µM (inactive) | 1.64 µM (inactive) | 2.21 µM (inactive) | 1.79 µM (inactive) |  | 5.78 µM (inactive) | 6.32 µM (inactive) | 5.68 µM (inactive) | 4 µM (inactive) | 2.03 µM (inactive) | 2.56 µM (inactive) | 1.35 µM (inactive) |  |
| Cc1nc2c(C)c3c([nH]c4ccc(Cl)cc43)c(C)c2c(O)c1C | 16.8 µM (inactive) | 5.53 µM (inactive) | 6.44 µM (inactive) | 6.76 µM (inactive) | 9.53 µM (inactive) | 2.24 µM (inactive) | 2.75 µM (inactive) | 4.88 µM (inactive) | 5.71 µM (inactive) | 7.5 µM (inactive) | 7.52 µM (inactive) | 5.89 µM (inactive) | 22 µM (inactive) | 4.82 µM (inactive) | 65.2 µM (inactive) | 9.02 µM (inactive) | 10.9 µM (inactive) | 7.24 µM (inactive) | 8.43 µM (inactive) | 8.39 µM (inactive) |
| N#CCc1c(-c2ccccc2)n(S(=O)(=O)c2ccccc2)c2ccccc12 | 6.78 µM (inactive) | > 100 µM (inactive) | 94.2 µM (inactive) | > 100 µM (inactive) | 8.89 µM (inactive) | > 100 µM (inactive) | > 100 µM (inactive) | > 100 µM (inactive) | > 100 µM (inactive) | 46.9 µM (inactive) | > 100 µM (inactive) |  |  | > 100 µM (inactive) | > 100 µM (inactive) | > 100 µM (inactive) | > 100 µM (inactive) | 37.3 µM (inactive) | > 100 µM (inactive) |  |
| COc1ccc(C(=O)C(C(=O)CCC(=O)Nc2cccc(Cl)c2)c2ccc(OC)cc2)cc1 (stereo not given) | 61.2 µM (inactive) | > 100 µM (inactive) | > 100 µM (inactive) | 9.42 µM (inactive) | > 100 µM (inactive) | > 100 µM (inactive) | > 100 µM (inactive) | > 100 µM (inactive) | > 100 µM (inactive) | > 100 µM (inactive) | > 100 µM (inactive) |  | > 100 µM (inactive) | > 100 µM (inactive) | > 100 µM (inactive) | > 100 µM (inactive) | > 100 µM (inactive) | > 100 µM (inactive) | > 100 µM (inactive) |  |
| NNC(=S)N/N=C/C(Cl)=C(\Cl)C(=O)O | > 100 µM (inactive) |  | > 100 µM (inactive) | > 100 µM (inactive) | > 100 µM (inactive) | > 100 µM (inactive) | > 100 µM (inactive) | > 100 µM (inactive) | > 100 µM (inactive) | > 100 µM (inactive) | > 100 µM (inactive) |  | > 100 µM (inactive) | > 100 µM (inactive) | > 100 µM (inactive) | > 100 µM (inactive) | > 100 µM (inactive) | > 100 µM (inactive) | > 100 µM (inactive) |  |
| c1ccc(SCCP(CCP(c2ccccc2)c2ccccc2)c2ccccc2)cc1 (stereo not given) | 0.948 µM (active) | 8.77 µM (inactive) |  | 46.6 µM (inactive) | 2.29 µM (inactive) | 2.09 µM (inactive) | 5.02 µM (inactive) | 3.06 µM (inactive) | 7.26 µM (inactive) | 4.21 µM (inactive) | 13.3 µM (inactive) |  | 9.02 µM (inactive) | 23.1 µM (inactive) | 3.07 µM (inactive) | 1.73 µM (inactive) | 10.5 µM (inactive) | 6.14 µM (inactive) | 11.5 µM (inactive) | 34.4 µM (inactive) |
| CCCCCCC(C)CCCCCCCCCCC(=O)O (stereo not given) | > 100 µM (inactive) | > 100 µM (inactive) | > 100 µM (inactive) | > 100 µM (inactive) | > 100 µM (inactive) | > 100 µM (inactive) | > 100 µM (inactive) | > 100 µM (inactive) | > 100 µM (inactive) | > 100 µM (inactive) | > 100 µM (inactive) |  | > 100 µM (inactive) | > 100 µM (inactive) | > 100 µM (inactive) | > 100 µM (inactive) | > 100 µM (inactive) | > 100 µM (inactive) | > 100 µM (inactive) |  |
| Cc1[nH]c2ccccc2c1C1Cc2ccccc2N1C(=O)/C=C\C(=O)O (stereo not given) | 24.3 µM (inactive) | 30.4 µM (inactive) | 26.2 µM (inactive) | > 100 µM (inactive) | 38.2 µM (inactive) | 26.4 µM (inactive) | 96.4 µM (inactive) |  | 24.8 µM (inactive) | 35.6 µM (inactive) | 32.4 µM (inactive) |  | 44.8 µM (inactive) | 27.9 µM (inactive) | 21.8 µM (inactive) | 58.2 µM (inactive) | 57.7 µM (inactive) | > 100 µM (inactive) | 73.3 µM (inactive) |  |
| COc1ccc(S(=O)(=O)Nc2ccccc2C(=O)O)cc1 | 68.1 µM (inactive) | > 100 µM (inactive) | > 100 µM (inactive) | > 100 µM (inactive) | 55.8 µM (inactive) | > 100 µM (inactive) | > 100 µM (inactive) | > 100 µM (inactive) | > 100 µM (inactive) | > 100 µM (inactive) | > 100 µM (inactive) |  | > 100 µM (inactive) | > 100 µM (inactive) | > 100 µM (inactive) | > 100 µM (inactive) | > 100 µM (inactive) | > 100 µM (inactive) | > 100 µM (inactive) |  |
